The subject of one data set is THP-1. Put plainly: Antiinflammatory activity in human THP1 cells assessed as inhibition of LPS-induced TNFalpha production by PLAP reporter assay. It is filed as functional, cell-based. Background: Reporter assays use an easily measured gene product as a stand-in for the process of interest.
A short description of data set [1]: Antiinflammatory activity in human B164 cells assessed as inhibition of LPS-induced Actin production by PLAP reporter assay. It is filed as functional.
Data set [2] in a line: Oral bioavailability in mouse. It is filed as ADME, organism-based. The settings on record: in vivo.
Data set [3] is described as follows: Toxicity in po dosed BALB/c mouse collagen antibody induced arthritis model assessed as tolerated dose. The settings on record: in vivo. Type of data set: organism-based.
The species entered for data set [4] is Mus musculus. Put plainly: Ratio of ED50 for BALB/c mouse collagen antibody induced arthritis model to tolerated dose for BALB/c mouse collagen antibody induced arthritis model. It is filed as functional.
Data set [5] deals with Mus musculus. Description: Antiarthritic activity in po dosed BALB/c mouse collagen antibody induced arthritis model assessed as inhibition of increase of arthritis score administered qd for 2 days after collagen antibody challenge measured after 2 days. Type of data set: functional. Particulars: 48 h.

Where only a bound is given, the exact number is not on record here.

Usually IC50 stands for the concentration at which inhibition is half-maximal. For orientation: bioavailability means the share of a dose that reaches the circulation, judged against a reference dose that is usually intravenous. Lower therefore signals little systemic uptake. In general, MTD refers to the largest dose that counted as tolerated. What is called ED50 is the dose at which the effect has come halfway, by size or by number of responders.

Consider `CCCNc1cc(O)c2c(c1)/C=C/C[C@H](O)[C@H](O)C(=O)/C=C\[C@@H](C)[C@H](C)OC2=O`, for which the IC50 with THP-1 was determined as 26 nM.

For the compound `C[C@@H]1/C=C\C(=O)[C@@H](O)[C@@H](O)C/C=C/c2c(c(O)cc3c2ncn3C)C(=O)O[C@H]1C`, the Activity in data set [1] was more than 10 µM. The bioavailability in data set [2] worked out at 49%. In addition, the MTD in data set [3] is less than 5 mg/kg. The Ratio in the data set filed under Mus musculus [4] is given as 1. Further, in the data set with Mus musculus [5], the 50% effective dose (ED50) is 5 mg/kg. Also, the IC50 in the data set on THP-1 was found to be 23 nM.

Regarding `CNc1cc(O)c2c(c1)/C=C/C[C@H](O)[C@H](O)C(=O)/C=C\[C@@H](C)[C@H](C)OC2=O`, in data set [2], the bioavailability worked out at 29%. Besides, the MTD in data set [3] is more than 30 mg/kg. Further, the Ratio in the data set listed under Mus musculus [4] came out at 6. Besides, in the data set with Mus musculus [5], the ED50 was 5 mg/kg. Moreover, the half-maximal inhibitory concentration (IC50) in the data set on THP-1 worked out at 85 nM.

For the compound `CCNc1cc(O)c2c(c1)/C=C/C[C@H](O)[C@H](O)C(=O)/C=C\[C@@H](C)[C@H](C)OC2=O` [E-6201], in data set [2], the bioavailability is 12%. In data set [3], the MTD was more than 30 mg/kg. Moreover, the Ratio in the data set listed under Mus musculus [4] is listed as 3. In addition, the median effective dose (ED50) in the data set with Mus musculus [5] turned out to be 5 mg/kg. The IC50 in the data set on THP-1 stood at 56 nM.

In the case of `COc1ccc2c(c1)c(CC(=O)O)c(C)n2C(=O)c1ccc(Cl)cc1` [INDOMETHACIN], in data set [3], the maximum tolerated dose (MTD) worked out at 3 mg/kg. Moreover, in the data set filed under Mus musculus [4], the Ratio stood at 3. Moreover, the ED50 in the data set on Mus musculus [5] was determined as 1 mg/kg.

On to `C[C@@H]1/C=C\C(=O)[C@@H](O)[C@@H](O)C/C=C/c2cc(N(C)C)cc(O)c2C(=O)O[C@H]1C`, for which, in data set [2], the bioavailability was 21%. Also, the maximal tolerated dose (MTD) in data set [3] came to 60 mg/kg. In the data set listed under Mus musculus [4], the Ratio stood at 4. Besides, in the data set with Mus musculus [5], the 50% effective dose (ED50) is 15 mg/kg. Further, the IC50 with THP-1 is 437 nM.

With `CCn1cnc2c3c(c(O)cc21)C(=O)O[C@@H](C)[C@H](C)/C=C\C(=O)[C@@H](O)[C@@H](O)C/C=C/3`, in data set [1], the Activity was more than 10 µM. Moreover, the MTD in data set [3] is less than 10 mg/kg. Also, the Ratio in the data set filed under Mus musculus [4] was 1. Moreover, the ED50 in the data set on Mus musculus [5] is 10 mg/kg. In addition, the IC50 with THP-1 turned out to be 43 nM.

Regarding `CCN(CC)c1cc(O)c2c(c1)/C=C/C[C@H](O)[C@H](O)C(=O)/C=C\[C@@H](C)[C@H](C)OC2=O`, the 50% inhibitory concentration (IC50) in the data set on THP-1 came out at 2070 nM.

As for `C[C@@H]1/C=C\C(=O)[C@@H](O)[C@@H](O)C/C=C/c2cc(NCc3ccccc3)cc(O)c2C(=O)O[C@H]1C`, the IC50 with THP-1 amounted to 1250 nM.

In the case of `C[C@@H]1/C=C\C(=O)[C@@H](O)[C@@H](O)C/C=C/c2cc(N3CCNCC3)cc(O)c2C(=O)O[C@H]1C`, in the data set with THP-1, the IC50 was 351 nM.

In data set [2], `C[C@@H]1/C=C\C(=O)[C@@H](O)[C@@H](O)C/C=C/c2cc(N)cc(O)c2C(=O)O[C@H]1C` yielded a bioavailability of 49%. Besides, the IC50 with THP-1 was 360 nM.

As for `C[C@@H]1/C=C\C(=O)[C@@H](O)[C@@H](O)C/C=C/c2cc(NCCO)cc(O)c2C(=O)O[C@H]1C`, the IC50 in the data set with THP-1 is 71 nM.

Consider `C[C@@H]1/C=C\C(=O)[C@@H](O)[C@@H](O)C/C=C/c2cc(N3CCOCC3)cc(O)c2C(=O)O[C@H]1C`, for which, in data set [2], the bioavailability came to 48%. For the same compound, the 50% inhibitory concentration (IC50) in the data set on THP-1 came to 129 nM.

As to `Cc1nc2c3c(c(O)cc2n1C)C(=O)O[C@@H](C)[C@H](C)/C=C\C(=O)[C@@H](O)[C@@H](O)C/C=C/3`, the Activity in data set [1] is more than 10 µM. Also, in data set [3], the MTD is less than 10 mg/kg. In addition, in the data set filed under Mus musculus [4], the Ratio is reported as 1. For the same compound, the median effective dose (ED50) with Mus musculus [5] amounted to 10 mg/kg. Also, the half-maximal inhibitory concentration (IC50) in the data set with THP-1 stood at 108 nM.

`C[C@]12C=CC(=O)C=C1CC[C@@H]1[C@@H]2[C@@H](O)C[C@@]2(C)[C@H]1CC[C@]2(O)C(=O)CO` [PREDNISOLONE]: in data set [3], the MTD stood at 10 mg/kg. Moreover, in the data set filed under Mus musculus [4], the Ratio turned out to be 3. Besides, the 50% effective dose (ED50) in the data set with Mus musculus [5] is 3 mg/kg.

Source of the values: ChEMBL document CHEMBL1157112, “Discovery of anti-inflammatory clinical candidate E6201, inspired from resorcylic lactone LL-Z1640-2, III” (Bioorg Med Chem Lett, 2010).
